Assay results from PubChem BioAssay AID652215 (Vanderbilt Specialized Chemistry Center, 2013).
Activity calls are given as the source filed them.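 Rule for the calls: active = activity score of 50 or more, meaning choline uptake cut by at least half versus untreated control; inactive = the rest.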

Target: High affinity choline transporter 1 (Homo sapiens) (UniProt Q9GZV3)
Experiment: choline transporter uptake block, single concentration – cell-based, HEK-293 hCHT LV-AA, [3H]-choline, mechanism study for choline transporter inhibitor project, SAR follow-up (AID 652215)
Settings: [3H]-choline uptake, 15 min, at 5 µM, stronger effect = lower value; for activity remaining, high choline: measured here: 10 uM choline uptake

Chain of High affinity choline transporter 1 (Homo sapiens) (Q9GZV3 whole entry, looked up): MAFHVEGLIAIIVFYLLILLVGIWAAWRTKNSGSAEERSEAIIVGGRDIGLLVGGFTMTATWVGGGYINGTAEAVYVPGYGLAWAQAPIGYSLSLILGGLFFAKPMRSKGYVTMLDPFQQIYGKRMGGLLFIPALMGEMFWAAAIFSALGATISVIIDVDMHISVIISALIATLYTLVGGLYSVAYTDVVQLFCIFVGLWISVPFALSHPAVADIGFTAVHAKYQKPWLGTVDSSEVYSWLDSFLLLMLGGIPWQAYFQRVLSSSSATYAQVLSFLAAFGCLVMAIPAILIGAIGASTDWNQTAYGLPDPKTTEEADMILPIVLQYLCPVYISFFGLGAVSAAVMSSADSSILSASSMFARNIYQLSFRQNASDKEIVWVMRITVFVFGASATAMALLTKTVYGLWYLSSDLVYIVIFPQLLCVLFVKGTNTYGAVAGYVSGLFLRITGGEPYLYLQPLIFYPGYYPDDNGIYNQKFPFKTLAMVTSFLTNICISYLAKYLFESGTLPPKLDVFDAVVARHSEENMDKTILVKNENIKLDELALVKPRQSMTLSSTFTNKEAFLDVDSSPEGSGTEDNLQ

Row | SMILES | activity remaining, low choline | activity remaining, high choline [%]
1 | COc1ccc(C(=O)NCc2ccc(Cl)s2)cc1OC1CCN(C(C)C)CC1 | 35.3% | 81
2 | COc1ccc(C(=O)NCC2CCOCC2)cc1OC1CCN(C(C)C)CC1 | 80% (inactive) | 74.5
3 | COc1ccc(C(=O)NCCCn2ccnc2)cc1OC1CCN(C(C)C)CC1 | 52.4% (inactive) | 60.8
4 | COc1ccc(C(=O)NCCN2CCCCC2=O)cc1OC1CCN(C(C)C)CC1 | 80.3% (inactive) | 84.5
5 | CCc1cc(CNC(=O)c2ccc(OC)c(OC3CCCC3)c2)on1 | 98% (inactive) | 99.4
6 | CCc1cc(CNC(=O)c2ccc(OC)c(OC3CCN(C(C)C)CC3)c2)on1 | 92.9% (inactive) | 71
7 | COc1ccc(C(=O)NCc2cc(C(C)C)no2)cc1OCc1ccncc1 | 85.9% (inactive) | 83.8
8 | COc1ccc(C(=O)NCc2cc(C(C)C)no2)cc1OCC1CCCCC1 | 87.2% (inactive) | 83
9 | CCc1cc(CNC(=O)c2ccc(OC)c(OCCN3CCCC3)c2)on1 | 59.3% (inactive) | 71.4
10 | COc1ccc(C(=O)NCc2cnn(C)c2C)cc1OC1CCN(C(C)C)CC1 | 33.1% | 57
11 | CCc1cc(CNC(=O)c2ccc(OC)c(OCc3ccccn3)c2)on1 | 90.2% (inactive) | 102
12 | CCc1cc(CNC(=O)c2ccc(OC)c(OC3CCNCC3)c2)on1 | 62.2% (inactive) | 94.7
13 | CCc1cc(CNC(=O)c2ccc(OC)c(OC3CCN(C)CC3)c2)on1 | 7.98% | 56.4
14 | COc1ccc(C(=O)NCc2cc(C(C)C)no2)cc1OCc1cccnc1 | 87.3% (inactive) | 95.5
15 | COc1ccc(C(=O)NCc2cc(C(C)C)no2)cc1OC(C)C | 89.4% (inactive) | 99.8
16 | COc1ccc(C(=O)NC2CCCCC2)cc1OC1CCN(C(C)C)CC1 | 72.2% (inactive) | 78.8
17 | CCc1cc(CNC(=O)c2ccc(OC)c(OC3CCCN(C)C3)c2)on1 (configuration not stated) | 56.5% (inactive) | 67.1
18 | COc1ccc(C(=O)NCC[C@@H]2C[C@@H]3C=C[C@H]2C3)cc1OC1CCN(C(C)C)CC1 | 9.91% | 66.3
19 | CCCCOc1cc(C(=O)NCc2cc(CC)no2)ccc1OC | 92.3% (inactive) | 62.3
20 | COc1ccc(C(=O)NCCc2cnn(C)c2)cc1OC1CCN(C(C)C)CC1 | 36.7% | 88.3
21 | CCc1cc(CNC(=O)c2ccc(OC)c(OCCN3CCOCC3)c2)on1 | 69.2% (inactive) | 78.9
22 | CCc1cc(CNC(=O)c2ccc(OC)c(OC(=O)c3ccc(OC)c(O)c3)c2)on1 | 92.3% (inactive) | 88.5
23 | COc1ccc(C(=O)NCCc2ccncc2)cc1OC1CCN(C(C)C)CC1 | 71.2% (inactive) | 82.8
24 | CCc1cc(CNC(=O)c2ccc(OC)c(OC(C)CN(C)C)c2)on1 (configuration not stated) | 77.1% (inactive) | 57.9
25 | CCOc1cc(C(=O)NCc2cc(C(C)C)no2)ccc1OC | 93.9% (inactive) | 78.2
26 | COc1ccc(C(=O)N[C@H]2CCCCNC2=O)cc1OC1CCN(C(C)C)CC1 | 13.1% | 73.4

Row | SMILES | activity remaining, low choline | activity remaining, high choline [%]
27 | CCc1cc(CNC(=O)c2ccc(OC)c(OCc3cccnc3)c2)on1 | 94.5% (inactive) | 72
28 | CCc1cc(CNC(=O)c2ccc(OC)c(O)c2)on1 | 93.7% (inactive) | 90.1
29 | COc1ccc(CNC(=O)c2ccc(OC)c(OC3CCN(C(C)C)CC3)c2)cc1OC | 52.7% (inactive) | 83.6
30 | COc1ccc(C(=O)NCc2cc(C(C)C)no2)cc1OCc1ccccn1 | 87.2% (inactive) | 100
31 | COCCOc1cc(C(=O)NCc2cc(C(C)C)no2)ccc1OC | 86.8% (inactive) | 84.5
32 | COc1ccc(C(=O)NCC(C)Oc2cccnc2)cc1OC1CCN(C(C)C)CC1 (configuration not stated) | 43.1% | 71.2
33 | CCCCOc1cc(C(=O)NCc2cc(C(C)C)no2)ccc1OC | 85.6% (inactive) | 88.8
34 | CCc1cc(CNC(=O)c2ccc(OC)c(OCc3ccccc3)c2)on1 | 90% (inactive) | 107
35 | CCc1cc(CNC(=O)c2ccc(OC)c(OCCN3CCCCC3)c2)on1 | 22.7% | 38.2
36 | COc1ccc(C(=O)NCc2cccc(C)c2)cc1OC1CCN(C(C)C)CC1 | 29.4% | 60.9
37 | COc1ccc(C(=O)NCC2OCCc3ccccc32)cc1OC1CCN(C(C)C)CC1 (configuration not stated) | 71.9% (inactive) | 67.1
38 | COc1ccc(C(=O)NCCN2CCOC2=O)cc1OC1CCN(C(C)C)CC1 | 41.8% | 97.6
39 | COc1ccc(C(=O)NCc2ccccc2C)cc1OC1CCN(C(C)C)CC1 | 32.9% | 64.8
40 | COc1ccc(C(=O)N[C@H]2CC[C@H](O)CC2)cc1OC1CCN(C(C)C)CC1 | 29.7% | 101
41 | COc1ccc(C(=O)NCc2cc(C(C)C)no2)cc1OCCCN(C)C | 67.3% (inactive) | 59.6
42 | COc1ccc(C(=O)NCc2cc(C(C)C)no2)cc1OCc1ccccc1 | 90.8% (inactive) | 97.2
43 | COc1ccc(C(=O)NCc2ccon2)cc1OC1CCN(C(C)C)CC1 | 46% | 83.3
44 | COc1ccc(C(=O)NC(C)c2nccs2)cc1OC1CCN(C(C)C)CC1 (configuration not stated) | 34.1% | 72.1
45 | CCc1cc(CNC(=O)c2ccc(OC)c(OCC3CCC3)c2)on1 | 91.1% (inactive) | 70.2
46 | CCOc1cc(C(=O)NCc2cc(CC)no2)ccc1OC | 86.4% (inactive) | 87.1
47 | COc1ccc(C(=O)NCCCn2cccn2)cc1OC1CCN(C(C)C)CC1 | 20.4% | 77.5
48 | COc1ccc(C(=O)NC(C)c2cn(C)nc2C)cc1OC1CCN(C(C)C)CC1 (configuration not stated) | 57.1% (inactive) | 73.9
49 | COc1ccc(C(=O)NCCc2c[nH]c3ccccc23)cc1OC1CCN(C(C)C)CC1 | 15.9% | 58
50 | CCc1cc(CNC(=O)c2ccc(OC)c(OCCOC)c2)on1 | 89.1% (inactive) | 80.6
51 | COc1ccc(C(=O)NCc2cc(C(C)C)no2)cc1OCC1CCC1 | 94.9% (inactive) | 92.7
